In PubChem BioAssay (NCI):
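Step 1: Grow cells in 96-well plates. Step 2: Expose to compound for 48 hours at 5 concentrations. Step 3: Interpolate endpoints linearly; if unreached, use highest concentration. Here, GI50 denotes the concentration required for 50% inhibition of growth. TGI is the concentration that stops growth completely.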

Tested on: MDA-MB-468 breast
Test: NCI-60 cell line screen, 48 h

Structure (SMILES) | GI50 | TGI
COc1ccc2sc3cccc(NCCN(C)C)c3c(=O)c2c1 | 2 µM | 4.5 µM
Cc1ccc(Cl)cc1Nc1nc(C(F)(F)F)ccc1C(=O)N/N=C/c1cccnc1 | 1.41 µM | 10.2 µM
CCOC(=O)[C@@H](C)C[C@H](Cc1ccccc1)NC(=O)c1nc([C@@H](C[C@H](C(C)C)N(C)C(=O)[C@@H](NC(=O)[C@H]2CCCCN2C)C(C)C)OC(C)=O)sc1CCOCc1ccccc1 | 0.0374 µM | 0.492 µM
CCOC(=O)c1ccc(Nc2sc(C(=O)c3ccc(Br)cc3)c(N)c2C#N)cc1 | 0.666 µM | > 100 µM
Cc1cccc(-c2[nH]ncc2-c2ccc3ncccc3n2)n1 | 7.34 µM | > 16.5 µM
COc1ccc(C(=O)Nc2ncc(Cc3cccc(Cl)c3)s2)cc1OC | 0.307 µM | > 95.9 µM
CCOC(=O)C1=C(C)N=c2s/c(=C\c3ccccc3O)c(=O)n2C1c1ccc(OC)c2ccccc12 (stereo not given) | 4.55 µM | 21.2 µM
COc1cc([C@@H]2c3cc4c(c(O)c3C[C@H]3COC(=O)[C@@H]32)OCO4)cc(OC)c1OC | 0.0657 µM | 0.311 µM
C[C@]12CC[C@@H]3c4cc(OC(F)F)c(O)cc4CC[C@H]3[C@@H]1CC[C@@H]2OS(N)(=O)=O | 0.504 µM | 30.4 µM
COC1=CC(c2ccc[nH]2)=N/C1=C\c1[nH]c(C)c(CC(=O)OCc2ccccc2)c1CCC(=O)OCc1ccccc1 | 0.51 µM | 2.96 µM
N#Cc1c(NC(=O)NCc2ccccc2)sc2c1CCCC2 | 0.425 µM | 11.3 µM
CCN(CC)c1ccc(NC2=C(Cl)C(=O)c3nc(C)ccc3C2=O)cc1 | 1.88 µM | 4.05 µM
NS(=O)(=O)OCC1OC(n2cnc3cncnc32)C(O)C1O (stereo not given) | 0.0189 µM | 0.0485 µM
O=C1CC[C@H](N2C(=O)c3cccc4c(Cc5ccc(CN6CCOCC6)cc5)ccc2c34)C(=O)N1 | 2.73 µM | 62.5 µM
NCCCNc1nc2ccccc2c2c(=O)c3cc(F)cc(F)c3sc12 | 1.71 µM | 3.81 µM
Cn1cc(C2=C(c3ccccc3[N+](=O)[O-])C(=O)NC2=O)c2ccccc21 | 4.08 µM | 10.5 µM
Cc1cc(=O)[nH]c(N/N=C/c2cc(Br)ccc2O)n1 | 0.46 µM | 16.5 µM
c1ccc(N2N=C(c3cccc(Nc4ccncc4)c3)CC2c2ccc3c(c2)OCO3)cc1 (stereo not given) | 1.47 µM | 3 µM
COc1cccc(CCC2CCCN(c3cc(C)nc(N)n3)C2)c1 (stereo not given) | 0.18 µM | 0.952 µM
CN1CCC(COc2cnc(-c3cccc(Cn4nc(-c5cccc(C#N)c5)ccc4=O)c3)nc2)CC1 | 1.49 µM | 3.23 µM
Nc1c(C(=O)c2ccc(-c3cccnc3)cc2)cnn1-c1ccc(F)cc1 | > 25 µM | > 25 µM
CSC1=Nc2c(c(C)c(-c3ccccc3)n2CCCN2CCCCC2)C2=NC(=O)C[C@H](C)N12 | 2.46 µM | 9.51 µM
CCOC(=O)c1ccccc1OC(=O)NNc1ccccc1 | 11.1 µM | > 100 µM
COc1cc2c(c(OC)c1OC)-c1ccc(OC)c(=O)cc1[C@@H](N)CC2 | < 0.01 µM | 

Structure (SMILES) | GI50 | TGI
COc1cc2nccc(Oc3ccc(NC(=O)NC4CC4)c(Cl)c3)c2cc1C(N)=O | 12.5 µM | > 80.8 µM
Cc1cc(Cl)cc2c(N=Nc3ccc(S(N)(=O)=O)cc3)c(O)[nH]c12 | > 25 µM | > 25 µM
C[n+]1c(/C=C/c2c[nH]c3ccccc23)ccc2ccccc21 | 1.8 µM | 13 µM
CC[C@H]1CN2CCc3cc(OC)c(OC)cc3C2C[C@@H]1CC1NCCc2cc(OC)c(OC)cc21 (stereo not given in full) | 0.0118 µM | 0.0377 µM
CC1(C)N=C(N)N=C(N)N1c1ccc(CCCCc2ccccc2)c(Cl)c1 | 0.0196 µM | 1.12 µM
CC(C)(C)N1CCC1CN (stereo not given) | > 100 µM | > 100 µM
C[C@]12CCc3nc(Nc4cccc(O)c4)sc3C1=CC[C@@H]1[C@@H]2CC[C@]2(C)/C(=N\NC(N)=S)CC[C@@H]12 | 1.86 µM | 4.23 µM
Nc1ccccc1NC(=O)c1ccc(CNc2nccc(-c3cccnc3)n2)cc1 | 0.496 µM | 2.25 µM
C=C(C)[C@@H]1CC[C@]2(COCCC#N)CC[C@]3(C)[C@H](CC[C@@H]4[C@@](C)(CCCNCCC#N)[C@H](C(=C)C)CC[C@]43C)[C@@H]12 | 17.3 µM | > 50 µM
CC[C@@H]1[C@@H](C)O[C@@](O)([C@@H](C)[C@H](O)[C@H](C)[C@H]2OC(=O)/C=C/C=C/[C@H](C)[C@@H]([C@@H](C)[C@@H](O)[C@H](C)[C@@]3(O)C[C@@H](O[C@H]4C[C@@H](O)[C@H](O)C(C)O4)[C@H](CC)[C@@H](C)O3)OC(=O)/C=C/C=C/[C@@H]2C)C[C@H]1O[C@@H]1C[C@@H](O)[C@H](O)C(C)O1 (stereo not given in full) | 0.0688 µM | 0.204 µM
CCN(CC)CCNc1ccc(C)c2sc3cc(Cl)ccc3c(=O)c12 | 2.07 µM | 4.21 µM
NC1=CC(=O)c2cccnc2C1=O | 1.35 µM | 3.03 µM
Cc1cc(Nc2ccc(OCc3ccccc3)cc2)nc2cc(O)ccc12 | 2.59 µM | 8.74 µM
CSc1ccc(-c2ccccc(=O)c2O)cc1 | 0.334 µM | 4.18 µM
CCCCCCCC/C=C/CCCCCCCC1=NC(C)(C)CN1CC(C)O (stereo not given) | 4.87 µM | 10.9 µM
O=C(COc1ccc(/C=C2\COc3ccccc3C2=O)cc1)Nc1nccs1 | 2.04 µM | 4.73 µM
O=C1/C(=C\c2ccc(F)cc2)CN(C(=O)c2ccccc2)C/C1=C\c1ccc(F)cc1 | 1.63 µM | 3.71 µM
COc1ccc(/C=C(/C(=O)N2CCN(c3ccccc3)CC2)c2cc(OC)c(OC)c(OC)c2)cc1N | 0.251 µM | > 100 µM
Oc1ccc(CSc2nnc(-c3ccncc3)o2)c2cccnc12 | 2.27 µM | 8.64 µM
CC[C@H](NC(=O)[C@H]1CCCCN1C)C(=O)N(C)[C@H](C[C@@H](OC(C)=O)c1nc(C(=O)N[C@@H](Cc2ccccc2)C[C@H](C)C(=O)O)cs1)C(C)C | 0.00199 µM | > 14.3 µM
COc1ccc(N=Cc2c(O)ccc3c2oc2cc(Cl)c(O)c(Cl)c23)cc1 | 14.2 µM | 67.6 µM
CN(C)c1ccc(/C=C/c2ccnc3c(O)cccc23)cc1 | 0.574 µM | 3.34 µM
COC(=O)[C@@H](C)C[C@H](Cc1cn(C)c2ccccc12)NC(=O)c1csc([C@@H](C[C@H](C(C)C)N(C)C(=O)[C@@H](NC(=O)[C@H]2CCCCN2C)C(C)C)OC(C)=O)n1 | 0.00585 µM | > 16.7 µM
Cc1ccc(NC(=O)c2ccc(CN3CCN(C)CC3)cc2)cc1Nc1nccc(-c2cccnc2)n1 | 13.9 µM | 36.2 µM
